Columns and labels:
[1] = In vivo blood elimination kinetics; set-up: species or system female Sprague-Dawley rats
Excerpt: In vivo blood elimination kinetics. The jugular vein of female Sprague-Dawley rats was implanted with catheter for blood collection (Harland, Indianapolis, IN, USA). […] All of the blood samples were collected from the catheter at different time point. Micro-plate reader (SpectraMax M2) was used to measure the ICG concentration at absorbance at 808 nm.

[2] = female, Sprague-Dawley, rat, blood, iv, 5 mg kg^−1, rats

Description for OSC-3 oral cancer cells: The in vitro cell cytotoxicity, cellular uptake study and combination therapy of samples were assessed on human OSC-3 oral cancer cell line, which was purchased from American type culture collection (ATCC). The cells were cultured with DMEM supplemented with 10% FBS and 1% Penicillin at 37° C. in humidified atmosphere with 5% CO2 for 24 h. Then the samples were added to each well and the cells were incubated at 37° C. for an additional 24 h. After the incubation, the relative cell viabilities were measured by the MTS assay. […] For in vitro chemo-/photothermal combination therapy, OSC-3 cells were seeded into 96-well plates (n=3) and incubated with different samples for 4 h, followed by exposure to an 808 nm NIR laser (0.8 W cm^2, 2 min). Thereafter, the cells were incubated for another 24 h at 37° C. and MTS reagent was added into each well. The relative cell viabilities were then measured by MTS assay. Percentage of cell viability represents drug effect, and 100% means all cells survived. Cell viability was calculated using the following equation: Cell viability (%)=(OD490 nm of treatment/OD490 nm of blank control)×100%. For in vitro cells apoptosis experiment, OSC-3 cells were co-cultured with different samples (DOX concentration: 25 μg mL^−1 and 808 nm NIR laser (0.8 W cm^2, 2 min), if applied) for 8 h. Cells were washed two times and replaced with fresh medium.

Row | SMILES | time to clearance from circulation ([1]; after intravenous administration) | AUC [1, 2] | half-life [1, 2] | cell viability (OSC-3 oral cancer cells)
1 | CC1(C)C(/C=C/C=C/C=C/C=C2\N(CCCCS(=O)(=O)O)c3ccc4ccccc4c3C2(C)C)=[N+](CCCCS(=O)(=O)[O-])c2ccc3ccccc3c21 [free ICG, indocyanine green] | ≤ 30 min | 12100 ng·h/mL | 5.22 min | 
2 | COc1cccc2c1C(=O)c1c(O)c3c(c(O)c1C2=O)C[C@@](O)(C(=O)CO)C[C@@H]3O[C@H]1C[C@H](N)[C@H](O)[C@H](C)O1 [free DOX, doxorubicin] |  |  |  | 61%

Reference: patent US12527880B2, “Cyanine-based telodendrimers and uses for treating cancer” (priority 2018, dated 2026)
